Measured values published in US10688084B2 (priority 2016, dated 2020).
Like-named read-outs stand apart in the source and are kept apart here.

Legend:
[1] = tested on: Wistar rats; assay: Acute (carrageenin) paw edema, anti-inflammatory activity in vivo; set-up: species or system rat; conditions: for ED50: Rattus norvegicus, read-out: ED50 acute inflammation; for Paw volume 0 / Paw volume 3 h: in mL (unit assumed); for Anti-inflammatory effect, %: control = 100.00
Protocol: The experiment was carried out using female and male Wistar rats aged 6-7 weeks with a body mass of 180-220 g. The number of animals in each group was 10.
The acute inflammatory reaction (edema) was reproduced by subplantar (under plantar or plantar aponeurosis) administration of 0.1 ml of 1% carrageenin solution (sulfated polysaccharide from Irish sea moss). The severity of the inflammatory reaction was assessed 3 hours after the induction of inflammation by a change in the volume of the paw (oncometric). The substance of formula I was administered into the stomach with the probe 1 hour before the introduction of the 1% solution of carrageenin. A 0.5% Tween-80 solution was used as a negative control. The anti-inflammatory effect, assessed by a decrease in edema, was expressed as a percentage of the control. According to the results of the action of four doses of the analyte, the calculation of ED50 was performed.
The introduction to rats was carried out in the amount of no more than 1 ml/100 g. The concentration of the resulting solution was 5 mg/ml.
Animals were euthanized by inhalation of carbon dioxide.

[2] = tested on: cyclooxygenase (COX); assay: COX activity assay (fluorometric kit, peroxidase activity) with skin fibroblast (HSF) cell lysate; format: biochemical; conditions: tested in presence of SC560 or celecoxib
[3] = tested on: Wistar rats; conditions: for Number of animals in the group/number of dead animals / LD10 / LD16 / LD84: rat; for Number of animals in the group/number of dead animals: 14 days; for LD10 / LD16 / LD84: intragastric
Protocol: The experiment was performed according to the fixed dose method in Wistar rats of both sexes, 6 animals per group. […] The solvent used was a 0.5% Tween-80 solution (Tween 80—polyoxyethylene, a derivative of sorbitan and oleic acid, a commercially available polymer), which was prepared by dissolving 0.5 g of Tween-80 in 100 ml of distilled water.
The introduction was carried out to animals deprived of food (for a period of not less than 8 hours) with free access to water. The volume of administration was calculated individually for each animal, based on the body mass recorded immediately before the introduction of the substance. Access to the feed was renewed an hour after the introduction. Animals were observed individually after administration for 30 minutes, then at least once per hour for 4 hours, then daily once a day for 14 days. Body mass was recorded immediately before the administration of the preparation to calculate the volume of administration, then once every two days. If the animal died during the study, the time of death was determined and documented as accurately as possible. The animal was weighed and dissected as soon as possible. Dying animals were weighed, euthanized and dissected. Animals were euthanized by inhalation of carbon dioxide. Toxic doses LD10, LD16, LD50 and LD84 were calculated using probit analysis with IBM SPSS Statistics software.
At the end of the experiment, euthanasia and pathomorphological dissection of control and experimental animals were performed.

[4] = mean value without sex distinction
[5] = female rats, 5 mg/kg intragastric
[6] = female rats, 10 mg/kg intragastric
[7] = female rats, 20 mg/kg intragastric
[8] = female rats, 50 mg/kg intragastric
[9] = male rats, 5 mg/kg intragastric
[10] = male rats, 10 mg/kg intragastric
[11] = male rats, 20 mg/kg intragastric
[12] = male rats, 50 mg/kg intragastric

COc1ccc2cc([C@H](C)C(=O)OCc3cnc(C)c(OC(=O)[C@@H](C)c4ccc5cc(OC)ccc5c4)c3COC(=O)[C@@H](C)c3ccc4cc(OC)ccc4c3)ccc2c1 [Compound of formula I, 3-((S)-2-(6-methoxynaphth-2-yl)propanoiloxy)-4,5-bis (((S)-2-(6-methoxinaphtht-2-yl)propanoiloxy)methyl)-2-methylpyridinium (S)-2-(6-methoxynaphth-2-yl) propanoate] showed an ED50 ([1]; females) of 14 mg/kg, an ED50 ([1]; males) of 23 mg/kg and an ED50 [1, 4] of 18.5 mg/kg. For the same molecule, the “Inflammatory edema decreased by, vs control group” value ([1]; female rats, 5 mg/kg) was 13.37%, the “Paw volume 0” value [1, 5] was 1.00 ± 0.03 and the “Paw volume 3 h” value [1, 5] was 1.94 ± 0.20. The “Anti-inflammatory effect, %” value ([1]; female rats, 5 mg/kg) was 86.63 ± 17.71%, the “Inflammatory edema decreased by, vs control group” value ([1]; female rats, 10 mg/kg) was 38.64% and the “Paw volume 0” value [1, 6] was 0.96 ± 0.06. The “Paw volume 3 h” value [1, 6] was 1.60 ± 0.16, the “Anti-inflammatory effect, %” value ([1]; female rats, 10 mg/kg) was 61.36 ± 17.12% and the “Inflammatory edema decreased by, vs control group” value ([1]; female rats, 20 mg/kg) was 67.89%. The “Paw volume 0” value [1, 7] was 0.91 ± 0.09, the “Paw volume 3 h” value [1, 7] was 1.23 ± 0.20 and the “Anti-inflammatory effect, %” value ([1]; female rats, 20 mg/kg) was 32.11 ± 15.06%. The “Inflammatory edema decreased by, vs control group” value ([1]; female rats, 50 mg/kg) was 65.47%, the “Paw volume 0” value [1, 8] was 0.91 ± 0.05 and the “Paw volume 3 h” value [1, 8] was 1.26 ± 0.23. For the same molecule, the “Anti-inflammatory effect, %” value ([1]; female rats, 50 mg/kg) was 34.53 ± 18.52%, the “Inflammatory edema decreased by, vs control group” value ([1]; male rats, 5 mg/kg) was 12.39% and the “Paw volume 0” value [1, 9] was 0.89 ± 0.07. For the same molecule, the “Paw volume 3 h” value [1, 9] was 1.87 ± 0.21, the “Anti-inflammatory effect, %” value ([1]; male rats, 5 mg/kg) was 87.61 ± 19.75% and the “Inflammatory edema decreased by, vs control group” value ([1]; male rats, 10 mg/kg) was 23.57%. For the same molecule, the “Paw volume 0” value [1, 10] was 0.93 ± 0.06, the “Paw volume 3 h” value [1, 10] was 1.84 ± 0.23 and the “Anti-inflammatory effect, %” value ([1]; male rats, 10 mg/kg) was 76.43 ± 22.74%. For the same molecule, the “Inflammatory edema decreased by, vs control group” value ([1]; male rats, 20 mg/kg) was 51.25%, the “Paw volume 0” value [1, 11] was 0.93 ± 0.05 and the “Paw volume 3 h” value [1, 11] was 1.51 ± 0.16. For the same molecule, the “Anti-inflammatory effect, %” value ([1]; male rats, 20 mg/kg) was 48.75 ± 16.39%, the “Inflammatory edema decreased by, vs control group” value ([1]; male rats, 50 mg/kg) was 62.34% and the “Paw volume 0” value [1, 12] was 1.04 ± 0.20. The “Paw volume 3 h” value [1, 12] was 1.54 ± 0.45, the “Anti-inflammatory effect, %” value ([1]; male rats, 50 mg/kg) was 37.66 ± 19.16% and the ED50 acute inflammation [1, 4] was 19 mg/kg. The COX isoform preference [2] was “preferential inhibitory activity against the isoform of COX-2”, the Dead animals ([3]; 5000 mg/kg intragastric, female, three days later) was 1 rat and the “Clinical observation after administration” value ([3]; 5000 mg/kg intragastric, symptom disappeared in 20-30 minutes) was “slight inhibition of the activity of the animal”. For the same molecule, the Body mass increase ([3]; 5000 mg/kg, 2 days after start) was 1-4%, the Body mass increase ([3]; 5000 mg/kg, 4 days after start) was 2-6% and the Body mass increase ([3]; 5000 mg/kg, eighth day) was 2-8%. The Autopsy findings ([3]; 5000 mg/kg, end of experiment) was “No changes were observed”, the Body mass increase ([3]; 5000 mg/kg, end of the experiment) was 5-13% and the “Hazard class (GOST 12.1.007-76)” value ([3]; intragastric administration) was 4th hazard class. For the same molecule, the “Number of animals in the group/number of dead animals” value ([3]; females, 5000 mg/kg intragastric) was 6/1, the LD10 ([3]; females) was greater than 5000 and the LD16 ([3]; females) was greater than 5000. The LD84 ([3]; females) was greater than 5000, the “Number of animals in the group/number of dead animals” value ([3]; males, 5000 mg/kg intragastric) was 6/0 and the LD10 ([3]; males) was greater than 5000. For the same molecule, the LD16 ([3]; males) was greater than 5000 and the LD84 ([3]; males) was greater than 5000.
